According to patent US6924302B2, “Substituted triazole diamine derivatives as kinase inhibitors” (Ortho McNeil Pharmaceutical, Inc., priority 2000, dated 2005):

Experiments:
Type in all cases: biochemical
[1] = target: T1, VEGF-R (vascular endothelial growth factor receptor-2) (Rattus norvegicus, UniProt O08775); assay: VEGF-R Screening Assay; settings: Table 1; read-out: VEGF-R IC50
T1 construct: polyhistidine (6xHIS) (N)
Method: (§1) 70 μL of the kinase reaction mixture was dispensed into the well of a streptavidin coated FlashPlate™ (Cat. # SMP103, NEN, Boston, Mass.). Then 1 μL of test compound stock in 100% DMSO was added to the wells resulting in a final concentration of 1% DMSO in the reaction with a 100 μL final reaction volume. Next, soluble rat tyrosine kinase containing an N-terminal 6×HIS tag was diluted in 50 mM Tris-HCl pH=8.0, 0.1% BSA at a concentration of 5 ng per μL and 30 μL (150 ng enzyme per test well) was added to each well to initiate the reaction. The reaction was incubated for one hour at 30° C. At the end of the 1-hour incubation, the reaction was terminated by aspirating the reaction mixture from the plate and washing the wells twice with PBS containing 100 mM EDTA. The PLC1 biotinylated peptide substrate became immobilized on the Flashplate™ and the incorporation of ^33P-γ-ATP was measured by reading the plate on a scintillation counter. Inhibition of the enzymatic activity of the VEGF-R was measured by observing a reduced amount of ^33P-γ-ATP incorporated into the immobilized peptide.
(§2) Assays to test compound inhibition of other kinases were preformed using methods that measure the amount of phosphorylation of a biotinylated peptide substrate. Biotinylated peptide substrates were selected from the literature as appropriate for the enzyme being evaluated. […] Assay conditions vary slightly for each protein kinase, for example, insulin receptor kinase requires 10 mM MnCl2 for activity and Calmodulin-dependent protein kinase requires calmodulin and 10 mM CaCl2. These assay conditions are known in the art. The reaction mixture was dispensed into the wells of a streptavidin coated Flashplate and 1 μl drug stock in 100% DMSO was added to a 100 μl reaction volume resulting in a final concentration of 1% DMSO on the reaction. Enzyme was diluted in 50 mM Tris-HCl pH=8.0, 0.1% BSA and add to each well. The reaction was incubated for one hour at 30° C. in the presence of compound. After one hour the reaction mix was aspirated from the plate and the plate was washed with PBS containing 100 mM EDTA. The plate was read on a scintillation counter to determine ^33P-γ-ATP incorporated into the immobilized peptide. Test compounds were assayed in duplicate at 8 concentrations [100 uM, 10 uM, 1 uM, 100 nM, 10 nM, 1 nM, 100 pM, 10 pM]. A maximum and minimum signal for the assay was determined on each plate. The IC50 was calculated from the dose response curve of the percent inhibition of the maximum signal in the assay according to the formula [max signal—background/test compound signal—background (100)=% inhibition] by graphing the percent inhibition against the log concentration of test compound. Known inhibitor compounds appropriate for the kinase being assayed were also included on each plate.
(§3) CDK2 in complex with cyclin A is commercially available (Upstate Biotech, Lake Placid, N.Y.). The CDK4 complex was composed of a mouse CDK4 protein and a mouse Cyclin D1 protein (The mouse CDK4 protein was genetically fused to an N-terminal Flag-epitope tag and the mouse Cyclin D1 protein was fused with an N-terminal AU-1 epitope tag. The genes encoding these proteins were transferred to commercially available baculoviral vectors. The recombinant CDK4/D1 complex was then made by co-infecting commercially available insect cells with viruses carrying these two constructs). […] ERK-1 protein (Discontinued from Calbiochem). EGFR (epidermal growth factor receptor) is purified from human A431 cell membranes (Sigma, St. Louis, Mo., Cat.# E3641).

CDK1:Cyclin-B = target: T2, CDK1:Cyclin-B (Homo sapiens, UniProt P06493); assay: CDK1 Screening Assay; settings: Table 1; read-out: CDK1 IC50
T2 construct: purchased New England Biolabs 6020; host or cells: insect cells
T2 sequence (P06493 whole entry): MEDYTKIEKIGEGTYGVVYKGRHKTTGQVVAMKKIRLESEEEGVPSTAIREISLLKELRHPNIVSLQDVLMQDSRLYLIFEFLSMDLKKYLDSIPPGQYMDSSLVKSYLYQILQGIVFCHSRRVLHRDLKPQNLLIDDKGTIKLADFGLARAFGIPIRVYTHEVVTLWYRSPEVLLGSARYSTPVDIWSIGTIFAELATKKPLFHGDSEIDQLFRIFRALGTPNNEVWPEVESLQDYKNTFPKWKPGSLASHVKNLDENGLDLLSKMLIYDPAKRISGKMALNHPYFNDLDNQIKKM
T2 sequence (P14635 whole entry partner): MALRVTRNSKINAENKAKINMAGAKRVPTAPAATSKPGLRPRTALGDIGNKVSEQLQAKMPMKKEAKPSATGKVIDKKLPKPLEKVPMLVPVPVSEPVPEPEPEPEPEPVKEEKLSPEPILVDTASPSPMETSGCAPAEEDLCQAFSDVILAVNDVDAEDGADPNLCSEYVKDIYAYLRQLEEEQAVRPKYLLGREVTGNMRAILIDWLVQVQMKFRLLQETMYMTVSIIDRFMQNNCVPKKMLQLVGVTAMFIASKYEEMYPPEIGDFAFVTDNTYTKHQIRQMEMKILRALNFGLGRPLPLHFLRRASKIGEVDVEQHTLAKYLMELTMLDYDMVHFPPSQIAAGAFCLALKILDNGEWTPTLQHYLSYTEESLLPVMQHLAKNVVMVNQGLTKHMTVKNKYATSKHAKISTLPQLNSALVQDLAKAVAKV
Method: as §1, with “100 μl” for “100 μL”, “Next, CDK1:Cyclin-B protein” for “Next, soluble rat tyrosine kinase containing an N-terminal 6×HIS tag”, “of 1” for “of 5”, “30 μl (30” for “30 μL (150”, “The histone-H1” for “The PLC1”, “of CDK1” for “of the VEGF-R”
Assays to test compound inhibition of other kinases were preformed using methods that measure the amount of phosphorylation of a biotinylated peptide substrate. Biotinylated peptide substrates were selected from the literature as appropriate for the enzyme being evaluated. […] Assay conditions vary slightly for each protein kinase, for example, insulin receptor kinase requires 10 mM MnCl2 for activity and Calmodulin-dependent protein kinase requires calmodulin and 10 mM CaCl2. These assay conditions are known in the art. The reaction mixture was dispensed into the wells of a streptavidin coated Flashplate and 1 μl drug stock in 100% DMSO was added to a 100 μl reaction volume resulting in a final concentration of 1% DMSO on the reaction. Enzyme was diluted in 50 mM Tris-HCl pH=8.0, 0.1% BSA and add to each well. The reaction was incubated for one hour at 30° C. in the presence of compound. After one hour the reaction mix was aspirated from the plate and the plate was washed with PBS containing 100 mM EDTA. The plate was read on a scintillation counter to determine ^33P-γ-ATP incorporated into the immobilized peptide. Test compounds were assayed in duplicate at 8 concentrations [100 uM, 10 uM, 1 uM, 100 nM, 10 nM, 1 nM, 100 pM, 10 pM]. A maximum and minimum signal for the assay was determined on each plate. The IC50 was calculated from the dose response curve of the percent inhibition of the maximum signal in the assay according to the formula [max signal—background/test compound signal—background (100)=% inhibition] by graphing the percent inhibition against the log concentration of test compound. Known inhibitor compounds appropriate for the kinase being assayed were also included on each plate. […]

[2] = target: T3, HER2 (human epidermal growth factor receptor-2) (Homo sapiens, UniProt P04626); assay: Kinase Selectivity Assay HER2; settings: Table 1; read-out: HER2 IC50
T3 construct: begins at amino acid 676 followed by the remainder of the HER2 cytoplasmic domain; polyhistidine (N)
T3 sequence (P04626 676-1255 limits assumed): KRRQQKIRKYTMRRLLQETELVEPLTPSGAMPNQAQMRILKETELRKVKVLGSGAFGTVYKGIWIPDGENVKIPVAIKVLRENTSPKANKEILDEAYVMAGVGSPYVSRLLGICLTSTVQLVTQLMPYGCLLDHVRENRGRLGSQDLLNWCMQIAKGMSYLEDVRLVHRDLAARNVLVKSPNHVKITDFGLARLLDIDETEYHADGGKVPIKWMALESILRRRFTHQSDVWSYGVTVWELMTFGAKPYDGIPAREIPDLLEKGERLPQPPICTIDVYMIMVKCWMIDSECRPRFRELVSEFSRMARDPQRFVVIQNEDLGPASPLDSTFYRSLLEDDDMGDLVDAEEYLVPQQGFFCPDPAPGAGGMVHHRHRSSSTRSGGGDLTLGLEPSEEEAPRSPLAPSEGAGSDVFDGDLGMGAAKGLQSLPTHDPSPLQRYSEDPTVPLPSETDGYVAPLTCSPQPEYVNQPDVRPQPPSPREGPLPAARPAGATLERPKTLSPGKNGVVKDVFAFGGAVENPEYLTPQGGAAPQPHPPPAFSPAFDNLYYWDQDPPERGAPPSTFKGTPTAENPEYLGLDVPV
Method: as §2, §3

T1 sequence (O08775 786-1343): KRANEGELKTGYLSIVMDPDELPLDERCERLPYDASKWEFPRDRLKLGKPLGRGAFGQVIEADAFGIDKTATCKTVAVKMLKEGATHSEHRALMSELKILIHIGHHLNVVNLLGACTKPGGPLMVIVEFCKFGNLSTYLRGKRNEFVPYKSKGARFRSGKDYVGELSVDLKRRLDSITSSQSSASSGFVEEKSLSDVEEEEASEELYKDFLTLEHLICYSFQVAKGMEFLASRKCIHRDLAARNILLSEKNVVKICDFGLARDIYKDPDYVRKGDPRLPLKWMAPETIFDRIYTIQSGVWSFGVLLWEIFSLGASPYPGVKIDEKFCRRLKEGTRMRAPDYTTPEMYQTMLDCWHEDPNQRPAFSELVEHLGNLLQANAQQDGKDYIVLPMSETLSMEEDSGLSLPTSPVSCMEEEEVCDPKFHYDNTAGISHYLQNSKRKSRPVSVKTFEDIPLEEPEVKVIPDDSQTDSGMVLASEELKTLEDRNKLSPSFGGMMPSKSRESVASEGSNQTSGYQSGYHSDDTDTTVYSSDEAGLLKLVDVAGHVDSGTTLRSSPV

Compound: CC(=O)c1ccc(C(=O)n2nc(Nc3ccc(S(N)(=O)=O)cc3)nc2N)s1 [Cpd 22, 4-[[1-[(5-acetyl-2-thienyl)carbonyl]-5-amino-1H-1,2,4-triazol-3-yl]amino]-benzenesulfonamide]
- IC50 [1]: 233 nM
- IC50 (CDK1:Cyclin-B): 31.8 nM

Compound: Cc1ccsc1C(=O)n1nc(Nc2ccc(S(=O)(=O)N3CCCCC3)cc2)nc1N [Cpd 24, 1-[(3-methyl-2-thienyl)carbonyl]-N^3-[4-(1-piperidinylsulfonyl)phenyl]-1H-1,2,4-triazole-3,5-diamine]
- IC50 [1]: 67.4 nM
- IC50 (CDK1:Cyclin-B): 282 nM

Compound: Nc1nc(Nc2ccc(S(N)(=O)=O)cc2)nn1C(=O)c1ccco1 [Cpd 25, 4-[[5-amino-1-(2-furanylcarbonyl)-1H-1,2,4-triazol-3-yl]amino]-benzenesulfonamide]
- IC50 [1]: 64 nM
- IC50 (CDK1:Cyclin-B): 19.5 nM

Compound: Nc1nc(Nc2ccc(S(N)(=O)=O)cc2)nn1C(=O)c1ccno1 [Cpd 26, 4-[[5-amino-1-(5-isoxazolylcarbonyl)-1H-1,2,4-triazol-3-yl]amino]-benzenesulfonamide]
- IC50 [1]: ~100000 nM
- IC50 (CDK1:Cyclin-B): 18400 nM

Compound: Nc1nc(Nc2ccc(S(N)(=O)=O)cc2)nn1C(=O)c1ccccn1 [Cpd 27, 4-[[5-amino-1-(2-pyridinylcarbonyl)-1H-1,2,4-triazol-3-yl]amino]-benzenesulfonamide]
- IC50 [1]: > 100000 nM
- IC50 (CDK1:Cyclin-B): ~100000 nM

Compound: Nc1nc(Nc2ccc(S(N)(=O)=O)cc2)nn1C(=O)c1cccnc1 [Cpd 28, 4-[[5-amino-1-(3-pyridinylcarbonyl)-1H-1,2,4-triazol-3-yl]amino]-benzenesulfonamide]
- IC50 [1]: 13200 nM
- IC50 (CDK1:Cyclin-B): 982 nM

Compound: Nc1nc(Nc2ccc(S(N)(=O)=O)cc2)nn1C(=O)c1ccncc1 [Cpd 29, 4-[[5-amino-1-(4-pyridinylcarbonyl)-1H-1,2,4-triazol-3-yl]amino]-benzenesulfonamide]
- IC50 [1]: ~100000 nM
- IC50 (CDK1:Cyclin-B): 70400 nM

Compound: Nc1nc(Nc2ccc(S(N)(=O)=O)cc2)nn1C(=O)c1cc2ccccc2s1 [Cpd 31, 4-[[5-amino-1-(benzo[b]thien-2-ylcarbonyl)-1H-1,2,4-triazol-3-yl]amino]-benzenesulfonamide]
- IC50 [1]: 44 nM
- IC50 (CDK1:Cyclin-B): 30 nM

Compound: Cc1nnsc1C(=O)n1nc(Nc2ccc(S(N)(=O)=O)cc2)nc1N [Cpd 36, 4-[[5-amino-1-[(4-methyl-1,2,3-thiadiazol-5-yl)carbonyl]-1H-1,2,4-triazol-3-yl]amino]-benzenesulfonamide]
- IC50 [1]: 18600 nM
- IC50 (CDK1:Cyclin-B): 1560 nM

Compound: Nc1nc(Nc2ccc(S(N)(=O)=O)cc2)nn1C(=O)c1csnn1 [Cpd 37, 4-[[5-amino-1-(1,2,3-thiadiazol-4-ylcarbonyl)-1H-1,2,4-triazol-3-yl]amino]-benzenesulfonamide]
- IC50 [1]: 55000 nM
- IC50 (CDK1:Cyclin-B): 10500 nM

Compound: Nc1nc(Nc2ccc(S(N)(=O)=O)cc2)nn1C(=O)Cc1cccs1 [Cpd 40, 4-[[5-amino-1-(2-thienylacetyl)-1H-1,2,4-triazol-3-yl]amino]-benzenesulfonamide]
- IC50 [1]: 11100 nM
- IC50 (CDK1:Cyclin-B): 195 nM

Compound: Nc1nc(Nc2ccc(S(N)(=O)=O)cc2)nn1C(=O)/C=C/c1cccs1 [Cpd 42, 4-[[5-amino-1-[(2E)-1-oxo-3-(2-thienyl)-2-propenyl]-1H-1,2,4-triazol-3-yl]amino]-benzenesulfonamide]
- IC50 [1]: 443 nM
- IC50 (CDK1:Cyclin-B): 134 nM

Compound: Nc1nc(Nc2ccc(S(N)(=O)=O)cc2)nn1C(=O)Cc1c(F)cccc1F [Cpd 43, 4-[[5-amino-1-[(2,6-difluorophenyl)acetyl]-1H-1,2,4-triazol-3-yl]amino]-benzenesulfonamide]
- IC50 [1]: 628 nM
- IC50 (CDK1:Cyclin-B): 87.3 nM

Compound: Nc1nc(Nc2ccc(S(N)(=O)=O)cc2)nn1C(=O)/C=C/c1c(F)cccc1F [Cpd 44, 4-[[5-amino-1-[(2E)-3-(2,6-difluorophenyl)-1-oxo-2-propenyl]-1H-1,2,4-triazol-3-yl]amino]-benzenesulfonamide]
- IC50 [1]: 2680 nM
- IC50 (CDK1:Cyclin-B): 522 nM

Compound: Nc1nc(Nc2ccc(S(N)(=O)=O)cc2)nn1C(=O)C1CCCCCC1 [Cpd 45, 4-[[5-amino-1-(cycloheptylcarbonyl)-1H-1,2,4-triazol-3-yl]amino]-benzenesulfonamide]
- IC50 [1]: 355 nM
- IC50 (CDK1:Cyclin-B): 13.7 nM

Compound: CC1CCC(C(=O)n2nc(Nc3ccc(S(N)(=O)=O)cc3)nc2N)CC1 (stereo not shown) [Cpd 46, 4-[[5-amino-1-[(4-methylcyclohexyl)carbonyl]-1H-1,2,4-triazol-3-yl]amino]-benzenesulfonamide]
- IC50 [1]: 453 nM
- IC50 (CDK1:Cyclin-B): 35.8 nM

Compound: CC1CCCCC1C(=O)n1nc(Nc2ccc(S(N)(=O)=O)cc2)nc1N (stereo not shown) [Cpd 47, 4-[[5-amino-1-[(2-methylcyclohexyl)carbonyl]-1H-1,2,4-triazol-3-yl]amino]-benzenesulfonamide]
- IC50 [1]: 2520 nM
- IC50 (CDK1:Cyclin-B): 58.6 nM

Compound: CCCCC1CCC(C(=O)n2nc(Nc3ccc(S(N)(=O)=O)cc3)nc2N)CC1 (stereo not shown) [Cpd 48, 4-[[5-amino-1-[(4-butylcyclohexyl)carbonyl]-1H-1,2,4-triazol-3-yl]amino]-benzenesulfonamide]
- IC50 [1]: ~100000 nM
- IC50 (CDK1:Cyclin-B): 2600 nM

Compound: Nc1nc(Nc2ccc(S(N)(=O)=O)cc2)nn1C(=O)c1ccc(-c2ccccn2)s1 [Cpd 49, 4-[[5-amino-1-[[5-(2-pyridinyl)-2-thienyl]carbonyl]-1H-1,2,4-triazol-3-yl]amino]-benzenesulfonamide]
- IC50 [1]: > 1000 nM
- IC50 (CDK1:Cyclin-B): > 1000 nM
- IC50 [2]: > 1000 nM

Compound: Nc1nc(Nc2ccc(S(N)(=O)=O)cc2)nn1S(=O)(=O)c1c(F)cccc1F [Cpd 68, 4-[[5-amino-1-[(2,6-difluorophenyl)sulfonyl]-1H-1,2,4-triazol-3-yl]amino]-benzenesulfonamide]
- IC50 [1]: 5140 nM
- IC50 (CDK1:Cyclin-B): 660 nM

Compound: Nc1nc(Nc2ccc(S(N)(=O)=O)cc2)n(C(=O)c2c(F)cccc2F)n1 [Cpd 122, 4-[[3-amino-1-(2,6-difluorobenzoyl)-1H-1,2,4-triazol-5-yl]amino]-benzenesulfonamide]
- IC50 [1]: > 10000 nM
- IC50 (CDK1:Cyclin-B): 2210 nM
